Data on 1 molecule can be found in US11267826B2, “Penicillin-binding protein inhibitors” (priority 2017, dated 2022).

Test [1] has as its system E. coli DH5a harboring TEM-24. Put plainly: Broth microdilution MIC, engineered E. coli expressing TEM-24. The class given is cell-based. The note with it: Escherichia coli, read-out: MIC, β-lactamase TEM. On the procedure:
(§1) To determine the ability of test compounds to potentiate the inhibition of the growth of bacterial strains, classic cell based broth microdilution MIC assays were employed. MIC assays are performed according to CLSI methods except where otherwise noted (CLSI, 2011 and CLSI, 2009). The reference strain S. aureus ATCC 29213 and the hyper-permeable E. coli 901C were used to determine the ability of the PBP compounds to inhibit bacterial growth. Briefly, cryo-preserved bacterial cultures of clinical strains are streaked for isolation on appropriate agar medium, in this case Mueller Hinton II agar. Following incubation to allow formation of colonies these plates are sealed with parafilm and stored refrigerated for up to two weeks. For preparation of assay inocula and to ensure low variability, at least 5 colonies are picked from the agar plates with an inoculating loop and aseptically transferred to a culture tube containing 3 mL of Mueller-Hinton Broth (supplemented with divalent cations to required levels based on Manufacturers' certification). The broth culture is grown for 3-5 hours at 37° C. with shaking at 200 rpm. Meanwhile, 2-fold serial dilutions of test compounds are conducted in a 96 well plate with a final volume of 75 μL per well at 2-fold the final desired concentration. After the dilution plates are set up the growing cultures are then diluted in a cuvette containing MH II broth and the optical density is measured at 600 nm. Inocula are diluted such that 75 μL of this culture in Mueller-Hinton Broth results in a starting bacterial concentration of 5×10^5 CFU/mL when added to the dilution plates. The plates are incubated 16-20 hours at 37° C. The MIC is read visually as the lowest concentration well with no bacterial growth.
(§2) To determine if test compounds were affected by various known β-lactamases, the inhibition of the growth of engineered strains of Escherichia coli harboring select single β-lactamases were tested. […]
Background: Broth dilution looks for growth in wells or tubes with falling amounts of substance.

Test [2] deals with hyper-permeable E. coli 901C. Briefly: Broth microdilution MIC assay, hyper-permeable E. coli. The class given is cell-based. To be noted: Escherichia coli, read-out: E. coli 901C MIC. A digest of the protocol: (§3)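 Two-fold serial dilutions tested per CLSI in cation-supplemented Mueller-Hinton broth against S. aureus ATCC 29213 and hyper-permeable E. coli 901C; inoculum 5×10^5 CFU/mL from 3-5 h log-phase culture. Incubated 16-20 h at 37° C; MIC read visually as lowest concentration with no growth.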

Test [3] has as its system E. coli DH5a harboring SHV-5. Put plainly: Broth microdilution MIC, engineered E. coli expressing SHV-5. It is filed as cell-based. To be noted: Escherichia coli, read-out: MIC, β-lactamase SHV. On the procedure:
as §1, §2

Test [4] relates to E. coli DH5a harboring NDM-1. Briefly: Broth microdilution MIC, engineered E. coli expressing NDM-1. The class given is cell-based. The note with it: Escherichia coli, read-out: MIC, β-lactamase NDM. The protocol: as §1, §2
Test [5] relates to E. coli DH5a with pLBII plasmid with no β-lactamase gene. Put plainly: Broth microdilution MIC, engineered E. coli control strain (pLBII plasmid, no β-lactamase gene). It is filed as cell-based. To be noted: Escherichia coli, read-out: MIC, β-lactamase None. The protocol:
as §1, §2

Test [6] deals with T1, E. coli PBP2 (Escherichia coli, UniProt P0AD65).
T1 construct: 100 μg's of total membrane protein extracts containing PBPs; endogenous in cells; host or cells: Escherichia coli K12, membrane protein fraction
T1 sequence (P0AD65 whole entry): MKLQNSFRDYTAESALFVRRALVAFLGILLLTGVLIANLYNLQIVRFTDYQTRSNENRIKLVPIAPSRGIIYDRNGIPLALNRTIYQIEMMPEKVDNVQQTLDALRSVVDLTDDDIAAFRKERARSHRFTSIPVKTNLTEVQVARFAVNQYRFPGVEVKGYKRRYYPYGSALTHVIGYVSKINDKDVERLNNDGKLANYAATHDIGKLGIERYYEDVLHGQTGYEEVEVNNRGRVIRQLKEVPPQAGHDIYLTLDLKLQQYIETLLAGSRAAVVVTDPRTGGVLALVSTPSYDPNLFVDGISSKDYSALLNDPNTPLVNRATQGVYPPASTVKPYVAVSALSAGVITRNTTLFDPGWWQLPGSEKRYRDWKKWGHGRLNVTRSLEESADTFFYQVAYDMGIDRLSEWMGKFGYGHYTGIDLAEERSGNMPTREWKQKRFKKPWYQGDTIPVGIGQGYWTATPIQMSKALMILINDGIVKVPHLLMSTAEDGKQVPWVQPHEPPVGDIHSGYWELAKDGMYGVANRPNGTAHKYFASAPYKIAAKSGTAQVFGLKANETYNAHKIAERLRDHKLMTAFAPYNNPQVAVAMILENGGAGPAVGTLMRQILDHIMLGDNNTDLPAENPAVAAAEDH
Put plainly: Bocillin FL competition binding assay, PBP2. The note with it: 15 min pre-incubation. More on the design: species or system Escherichia coli K12. A digest of the protocol:
(§4)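 E. coli K12 membrane extracts (100 µg protein) pre-incubated 15 min with compound (0.005–2,480 µg/mL) in pH 7 phosphate/350 mM NaCl, then labelled with Bocillin FL 30 min at 35°C; SDS-PAGE fluorescence (ex 450/em 520 nm), μg/mL reported. PBP1a/1b unresolved, reported combined.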

In test [7] the test system is E. coli DH5a harboring KPC-2. Put plainly: microbe, parasite or virus in culture. It is filed as cell-based. The note with it: Escherichia coli, read-out: MIC, β-lactamase KPC. The protocol: To determine the ability of test compounds to potentiate the inhibition of the growth of bacterial strains, classic cell based broth microdilution MIC assays were employed. MIC assays are performed according to CLSI methods except where otherwise noted (CLSI, 2011 and CLSI, 2009). The reference strain S. aureus ATCC 29213 and the hyper-permeable E. coli 901C were used to determine the ability of the PBP compounds to inhibit bacterial growth. Briefly, cryo-preserved bacterial cultures of clinical strains are streaked for isolation on appropriate agar medium, in this case Mueller Hinton II agar. Following incubation to allow formation of colonies these plates are sealed with parafilm and stored refrigerated for up to two weeks. For preparation of assay inocula and to ensure low variability, at least 5 colonies are picked from the agar plates with an inoculating loop and aseptically transferred to a culture tube containing 3 mL of Mueller-Hinton Broth (supplemented with divalent cations to required levels based on Manufacturers' certification). The broth culture is grown for 3-5 hours at 37° C. with shaking at 200 rpm. […] After the dilution plates are set up the growing cultures are then diluted in a cuvette containing MH II broth and the optical density is measured at 600 nm. […] The MIC is read visually as the lowest concentration well with no bacterial growth. […]

Test [8] has as its system S. aureus ATCC 29213. Put plainly: Broth microdilution MIC assay, S. aureus. The class given is cell-based. To be noted: Staphylococcus aureus, ATCC29213; broth microdilution, 16-20 hours at 37° C.; read-out: S. aureus 29213 MIC. A digest of the protocol:
as §3

In test [9] the test system is E. coli K12 PBP1a/b. Briefly: Bocillin FL competition binding assay, PBP1a/1b combined. To be noted: 15 min pre-incubation, PBP 1a/1b combined. Details: species or system Escherichia coli K12. A digest of the protocol:
as §4

With `Nc1nc(/C(=N/O)C(=O)N[C@H]2Cc3cccc(C(=O)O)c3OB2O)cs1` [Example 6, (R,Z)-3-(2-(2-aminothiazol-4-yl)-2-(hydroxyimino)acetamido)-2-hydroxy-3,4-dihydro-2H-benzo[e][1,2]oxaborinine-8-carboxylic Acid], the MIC in [1] is 16 µg/mL; in test [2], under 64 µg/mL; in test [3], 16 µg/mL; in test [4] it was 16 µg/mL; in test [5], 16 µg/mL; in test [7] it was 16 µg/mL. In addition, the MIC in test [8] was under 64 µg/mL. Besides, the “E. coli PBP2 Potency” value in test [6] was “B (B represents a potency between 64 and 1000 μg/mL inclusive)”. Further, the “E. coli K12 PBP1a/b Potency” value in test [9] was “C (C represents a potency of <64 μg/mL)”.
